# Laboratory results as given in US20230288411A1, “POLYPEPTIDE, MULTIMER, SOLID PHASE, MEASUREMENT METHOD FOR TEST SUBSTANCE, AND REAGENT KIT” (SYSMEX CORPORATION, priority 2020, published 2023).
# Tests used:
# L-biotin-labeled albumin = experiment: SPR (Biacore T200) binding evaluation to L-biotin-labeled albumin; parameters: species or system bovine; conditions: analyte flowed at 30 μL/min up to 100 nM, single cycle method, albumin immobilized on sensor chip
# Protocol: (§1) A binding ability of D-streptavidin obtained in Example 1 to D-biotin as a natural form and L-biotin as an optical isomer of D-biotin was evaluated by an intermolecular interaction analyzer (Biacore T200) using SPR as a measurement principle.
# Similarly, L-biotin-labeled albumin was prepared using L-biotin-AC5-OSu [see (Amidation of L-biotin) described in Example 3 above].
# Bovine serum albumin was immobilized on flow cells 1 and 3 of a CMS sensor chip (manufactured by Cytiva) of a Biacore T200 system at a target level of 400 RU by an amine coupling method with an amine coupling kit (Cytiva). Further, L-biotin-labeled albumin and D-biotin-labeled albumin were immobilized at a target level of 400 RU to flow cells 2 and 4, respectively, similarly by an amine coupling method. Blocking was performed in each flow cell with 1 M ethanolamine solution, pH 8.5 (manufactured by Cytiva). […]
# (§2) Using HBS-EP+(manufactured by Cytiva) as a running buffer, the prepared D-tamavidin (trademark) 2 was flowed into each flow cell at a flow rate of 30 μL/min in the range of 100 pM to 100 nM by a single cycle method, and binding and dissociation to D-biotin or L-biotin was evaluated by Biacore T200 Evaluation Software (manufactured by Cytiva).
# D-biotin-labeled albumin = experiment: SPR (Biacore T200) binding evaluation to D-biotin-labeled albumin; parameters: species or system bovine; conditions: analyte flowed at 30 μL/min up to 100 nM, single cycle method, albumin immobilized on sensor chip
# Protocol: as §1
# An N,N-dimethylformamide solution (16.3 μL) containing 10 mg/mL D-biotin-AC5-OSu (manufactured by DOJINDO LABORATORIES) was added to 2.8 mL of 50 mg/mL bovine serum albumin/0.1 M phosphate buffer solution (pH 7.5), and the mixture was stirred, then allowed to stand at 35° C. for 1 hour. Thereafter, desalting was performed by PD-10 (17085101, manufactured by Cytiva) equilibrated with a 0.1 M phosphate buffer (pH 7.5), and D-biotin-labeled albumin was recovered. The number of labeled D-biotin per molecule of albumin by HABA method was 0.4.
# Bovine serum albumin was immobilized on flow cells 1 and 3 of a CMS sensor chip (manufactured by Cytiva) of a Biacore T200 system at a target level of 400 RU by an amine coupling method with an amine coupling kit (Cytiva). […]
# as §2
Substance,binding to L-biotin-labeled albumin (SPR sensorgram) (L-biotin-labeled albumin),binding to D-biotin-labeled albumin (SPR sensorgram) (D-biotin-labeled albumin)
D-streptavidin: tetrameric polypeptide of 13th to 139th amino acids of SEQ ID NO: 1 composed of D-amino acid residues,very strongly bound,not substantially bound
natural core streptavidin: commercially available tetrameric natural core streptavidin (manufactured by Roche) [reference compound],–,very strongly bound
